Among the data in ChEMBL document CHEMBL1131955, “Solid-phase synthesis of novel inhibitors of farnesyl transferase” (Bioorg Med Chem Lett, 1999) are IC50 values, retold here.

For test [1], the target named is Protein farnesyltransferase (Rattus norvegicus, UniProt Q02293+Q04631). As to the kind of experiment: In vitro inhibition of rat brain cytosol farnesyl transferase.
The target in test [2] is geranylgeranyltransferase type-I (Rattus norvegicus, UniProt P53610+Q04631). Briefly: In vitro inhibition of rat brain cytosol Geranylgeranyl transferase type I.

Molecules are shown by their SMILES. Where only a bound is given, the exact number is not on record here.

`CC(C)=CCC/C(C)=C/CC/C(C)=C/COc1c(F)c(O)c([N+](=O)[O-])c(F)c1F`: the IC50 in test [1] was 6.3 µM; in test [2], 12.5 µM.
The corresponding values for `O=[N+]([O-])c1c(O)c(F)c(OCc2ccc(-c3ccccc3)cc2)c(F)c1F` are 200 µM and over 200 µM.
The corresponding values for `CCCCCCCCCCCCOc1c(F)c(O)c([N+](=O)[O-])c(F)c1F` are over 100 µM and over 100 µM.
The corresponding values for `C=CCOc1c(F)c(O)c([N+](=O)[O-])c(F)c1F` are over 200 µM and over 200 µM.
With `O=[N+]([O-])c1c(O)c(F)c(OCc2ccccc2)c(F)c1F`, the IC50 was over 200 µM in test [1] and 58 µM in test [2].
The corresponding values for `C=C(C)C1CC=C(COc2c(F)c(O)c([N+](=O)[O-])c(F)c2F)CC1` (centres undefined) are 120 µM and 85 µM.
As for `O=[N+]([O-])c1c(O)c(F)c(OCc2ccc3ccccc3c2)c(F)c1F`, the IC50 in test [1] was 200 µM; in test [2] it was over 200 µM.

As a reminder, the IC50 is the concentration that gives 50% inhibition. The low end stands for inhibition by little substance, the high end for a need for much substance.
